Test results taken from paper PMC7585386 (ACS chemical biology, 2020).
pIC50: −log10 of the molar value.

Target: calcium-dependent protein kinase 1 (CDPK1, CDPK1^G; TGGT1_301440) (Toxoplasma gondii, UniProt Q9BJF5)
Assay: kinase assay with recombinant purified enzyme in excess calcium
Type: biochemical

Compound: Cc1cccc(Cc2nn(C(C)(C)C)c3ncnc(N)c23)c1 [3-MB, 3-MB-PP1]
- pIC50: 7.10
